Patent US20260049105A1, “SELECTIVE MC4R LIGAND FOR TREATING OBESITY AND COGNITIVE LOSS” (ARIZONA BOARD OF REGENTS ON BEHALF OF THE UNIVERSITY OF …, priority 2022, published 2026)

Experiments:
[1] = target: T1, hMC4R (Homo sapiens, UniProt P32245); assay: Competitive receptor binding assay, whole HEK293 cells, 125I-NDP-α-MSH; settings: for inhibition at 10 µM: 40 min, hM4CR, percentage of [125I]NDP-α-MSH displacement at 10 μM, read-out: BE%
T1 construct: expressed in transfected cells; host or cells: HEK293
Procedure: (§1) Competition binding experiments were performed on whole cells. The transfected HEK293 cell line with hMC4Rs were seeded on 96 well plates, 48 hours before the assay, 100,000 cells/well. For the assay, the medium was removed and cells were washed twice with a freshly prepared binding buffer containing 100% minimum essential medium with Earle's salt (MEM, GIBCO), 25 mM HEPES (pH 7.4), 0.2% bovine serum albumin, 1 mM 1,10-phenanthroline, 0.5 mg/L leupeptin, and 200 mg/L bacitracin. […] The medium was subsequently removed and each well was washed twice with the assay buffer. The cells are lysed by the addition of 250 μL of 0.1 NaOH and 250 μL of 1% Triton X-100. […] Data were analyzed using Graphpad Prism 6.0 (Graphpad Software, San Diego, CA).
IC50 and EC50 values represent the mean of duplicate experiments performed in triplicate. IC50 and EC50 estimates and their associated standard errors were determined by fitting the data using nonlinear least-squares analysis, with the help of Graphpad Prism 6.0 (Graphpad Software, San Diego, CA). […]

[2] = target: T1, hMC4R; assay: Adenylate cyclase (cAMP) assay in transfected HEK293 cells; format: cell-based; settings: for Emax at 10 µM: HEK293, 0.05 h, hM4CR, percentage of cAMP produced at 10 μM in relation to MT-II, read-out: Act%
Procedure: The cells were seeded on 96 well plates 48 hours before the assay, (100,000 cells/well). For the assay, the medium was removed and cells were rinsed with 1 mL of MEM buffer (GIBCO) or with Earle's balanced salt solution (EBSS, GIBCO). An aliquot (0.4 mL) of Earle's balanced salt solution was placed in each well along with isobutylmethylxanthine (IBMX; 5 μL; 0.5 mM) for 1 minute at 37° C. Varying concentrations of melanotropins (0.1 mL) were added and the cells incubated for 3 minutes at 37° C. The reaction was stopped by aspirating the buffer and adding ice-cold Tris/EDTA buffer to each well (0.15 mL). The 96 well plates were covered and placed on ice. After dislodging the cells, the plates were placed in a boiling water bath for 15 minutes. The cell lysate was then centrifuged for 10 minutes (4000 rpm), and 50 μL of the supernatant was aliquoted into perkinElmer glass fiber filter plate. cAMP content was measured by competitive binding assay in addition to 50 μL H^3 cAMP and 100 μL PKA. Then the system was placed on ice for 2 hours and then vacuum and filtered. 100 μL of the OptiPhase Supermix scintillation fluid was added to the plate. The plates stayed for 8 hours and then read by MicroBeta radiation plate reader. IC50 and EC50 values represent the mean of duplicate experiments performed in triplicate. […] NA indicates 0% cAMP accumulation observed at 10 μM. The peptides were tested over a range of concentrations from 10^-10 to 10^-5 M.

[3] = target: T2, hMC1R (Homo sapiens, UniProt Q01726); assay: Competitive receptor binding assay, whole HEK293 cells, 125I-NDP-α-MSH; settings: for inhibition at 10 µM: 40 min, hM1CR, percentage of NDP-α-MSH displacement at 10 μM, read-out: BE %; for hMC1R binding affinity (in words): compared with the other analogues
T2 construct: expressed in transfected cells; host or cells: HEK293
Procedure: [The procedure below names another target; the source lists this target under the same test.] (§2) Competition binding experiments were performed on whole cells. The transfected HEK293 cell line with hMC4Rs were seeded on 96 well plates, 48 hours before the assay, 100,000 cells/well. For the assay, the medium was removed and cells were washed twice with a freshly prepared binding buffer containing 100% minimum essential medium with Earle's salt (MEM, GIBCO), 25 mM HEPES (pH 7.4), 0.2% bovine serum albumin, 1 mM 1,10-phenanthroline, 0.5 mg/L leupeptin, and 200 mg/L bacitracin. […] The medium was subsequently removed and each well was washed twice with the assay buffer. The cells are lysed by the addition of 250 μL of 0.1 NaOH and 250 μL of 1% Triton X-100. The lysed cell was transferred to the 12×75 mm glass tubes and the radioactivity was measured by Wallac 1470 WIZARD Gamma Counter. Data were analyzed using Graphpad Prism 6.0 (Graphpad Software, San Diego, CA).
(§3) IC50 and EC50 values represent the mean of duplicate experiments performed in triplicate. IC50 and EC50 estimates and their associated standard errors were determined by fitting the data using nonlinear least-squares analysis, with the help of Graphpad Prism 6.0 (Graphpad Software, San Diego, CA).
(§4) NA indicates 0% cAMP accumulation observed at 10 μM. The peptides were tested over a range of concentrations from 10^-10 to 10^-5 M.

[4] = target: T3, hMC3R (Homo sapiens, UniProt P41968); assay: as above; settings: 40 min; hM3CR; percentage of NDP-α-MSH displacement at 10 μM; read-out: BE %
T3 construct: expressed in transfected cells; host or cells: HEK293
Procedure: [The procedure below names another target; the source lists this target under the same test.] as §2, §3, §4

[5] = target: T4, hMC5R (Homo sapiens, UniProt P33032); assay: as above; settings: 40 min; hM5CR; percentage of NDP-α-MSH displacement at 10 μM; read-out: BE %
T4 construct: expressed in transfected cells; host or cells: HEK293
Procedure: [The procedure below names another target; the source lists this target under the same test.] as §1, §3, §4

[6] = target: T2, hMC1R; assay: Adenylate cyclase (cAMP) assay in transfected HEK293 cells; format: cell-based; settings: HEK293, 0.05 h; hM1CR; cAMP at 10 μM in relation to MT-II; read-out: Act %
Procedure: (§5) HEK293 cells transfected with human melanocortin receptors were grown to confluence in MEM medium (GIBCO) containing 10% fetal bovine serum, 100 units/mL penicillin and streptomycin, and 1 mM sodium pyruvate. The cells were seeded on 96 well plates 48 hours before the assay, (100,000 cells/well). For the assay, the medium was removed and cells were rinsed with 1 mL of MEM buffer (GIBCO) or with Earle's balanced salt solution (EBSS, GIBCO). An aliquot (0.4 mL) of Earle's balanced salt solution was placed in each well along with isobutylmethylxanthine (IBMX; 5 μL; 0.5 mM) for 1 minute at 37° C. Varying concentrations of melanotropins (0.1 mL) were added and the cells incubated for 3 minutes at 37° C. The reaction was stopped by aspirating the buffer and adding ice-cold Tris/EDTA buffer to each well (0.15 mL). The 96 well plates were covered and placed on ice. After dislodging the cells, the plates were placed in a boiling water bath for 15 minutes. The cell lysate was then centrifuged for 10 minutes (4000 rpm), and 50 μL of the supernatant was aliquoted into perkinElmer glass fiber filter plate. cAMP content was measured by competitive binding assay in addition to 50 μL H^3 cAMP and 100 μL PKA. Then the system was placed on ice for 2 hours and then vacuum and filtered. 100 μL of the OptiPhase Supermix scintillation fluid was added to the plate. The plates stayed for 8 hours and then read by MicroBeta radiation plate reader.
as §3, §4

[7] = target: T3, hMC3R; assay: as above; format: cell-based; settings: HEK293, 0.05 h; hM3CR; cAMP at 10 μM in relation to MT-II; read-out: Act %
Procedure: as §5, §3, §4

[8] = target: T4, hMC5R; assay: as above; format: cell-based; settings: HEK293, 0.05 h; hM5CR; cAMP at 10 μM in relation to MT-II; read-out: Act %
Procedure: as §5, §3, §4

[9] = target: T1, hMC4R; assay: Plasmon waveguide resonance (PWR) spectrum of hMC4R membranes with agonists
Description: PWR uses polarized light generated from a CW He—Ne laser (λ=632.8 nm or λ=543.5 nm), which passes through a glass prism under total internal reflection conditions. A thin metal film (Ag), which is deposited on the external surface of the prism, is overcoated with another thin layer of SiO2 as dielectric media. When there is an object attached to the dielectric layer of SiO2, and polarized laser forms a specific incident angle with the outer surface layer, the resonant excitation of collective electronic oscillations (plasmons) happens and generates an evanescent electromagnetic field localized at the dielectric film, which gives the absorption spectrum at that specific angle. This can be used to probe the optical properties of molecules immobilized on the outer surface of the prism. Resonance is achieved either by varying the laser light wavelength at a fixed angle or by varying the angle at a fixed laser wavelength(we used the latter one in this research). Any changes of the immobilized yield distinct incident angle that evanescence happens in the dielectric layer. Due to the ability that laser light can be polarized to either parallel (p) or perpendicular (s) to the incident plane, characterization of the molecular organization of anisotropic systems can be fulfilled, such as biomembranes containing integral proteins. Under the experimental conditions described herein, the optical parameters obtained with the p-polarization refer to the perpendicular direction, and those obtained with s-polarization refer to the parallel direction, relative to the bilayer membrane surface.
Resonance spectra in this study were obtained using a PWR instrument from Biopeptek Pharmaceuticals LLC. […] Recombinant HEK293 cells expressing the hMC4R were grown to confluency. The confluent cell monolayers were then washed with Ca^2+ and Mg^2+-deficient phosphate-buffered saline and were harvested in the same buffer containing 0.02% ethylenediaminetetraacetic acid (EDTA). After centrifugation at 1500 g for 10 minutes, the cells were homogenized in an ice-cold 10 mM Tris-HCl buffer and 1 mM EDTA (pH 7.4). A crude membrane fraction was collected by centrifugation at 40,000 g for 20 minutes at −4° C. and was stored at −80° C. until use. Before the PWR experiment, the membrane fraction was resuspended in a 20 mM Tris-HCl buffer (pH 7.4) by mild homogenization. Protein concentration was determined by using a Bradford assay.
Under the experimental conditions employed herein, the oscillation of light with p-polarization reflects the dimension of objects perpendicular to the membrane, and those obtained under the s-polarization vector refer to the dimension in parallel with the bilayer membrane surface.

T4 sequence (P33032 whole entry): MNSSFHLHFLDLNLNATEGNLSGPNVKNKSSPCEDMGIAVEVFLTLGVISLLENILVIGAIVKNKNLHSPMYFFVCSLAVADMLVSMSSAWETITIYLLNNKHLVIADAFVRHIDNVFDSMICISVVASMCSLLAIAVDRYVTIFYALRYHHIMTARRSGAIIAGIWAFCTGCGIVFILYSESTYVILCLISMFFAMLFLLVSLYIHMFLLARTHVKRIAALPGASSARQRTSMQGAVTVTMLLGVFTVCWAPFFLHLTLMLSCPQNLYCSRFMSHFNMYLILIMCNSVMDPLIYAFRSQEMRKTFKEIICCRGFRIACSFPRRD
T3 sequence (P41968 whole entry): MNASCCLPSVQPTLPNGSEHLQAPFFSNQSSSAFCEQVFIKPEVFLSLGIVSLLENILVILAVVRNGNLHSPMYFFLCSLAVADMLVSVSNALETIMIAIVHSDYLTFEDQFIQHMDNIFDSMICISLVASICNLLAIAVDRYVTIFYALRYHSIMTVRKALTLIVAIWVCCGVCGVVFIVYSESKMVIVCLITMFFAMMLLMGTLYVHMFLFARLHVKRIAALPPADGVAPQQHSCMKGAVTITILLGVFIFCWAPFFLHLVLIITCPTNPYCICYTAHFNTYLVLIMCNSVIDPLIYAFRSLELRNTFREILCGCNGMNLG
T2 sequence (Q01726 whole entry): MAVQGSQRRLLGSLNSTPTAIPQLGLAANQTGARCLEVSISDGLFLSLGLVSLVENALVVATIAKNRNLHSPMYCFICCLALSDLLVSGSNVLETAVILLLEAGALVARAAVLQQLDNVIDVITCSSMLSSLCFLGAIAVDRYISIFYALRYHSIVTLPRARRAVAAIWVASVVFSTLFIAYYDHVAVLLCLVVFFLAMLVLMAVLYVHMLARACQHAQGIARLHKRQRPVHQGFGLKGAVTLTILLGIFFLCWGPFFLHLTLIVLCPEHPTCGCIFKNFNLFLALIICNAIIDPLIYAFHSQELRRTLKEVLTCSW
T1 sequence (P32245 whole entry): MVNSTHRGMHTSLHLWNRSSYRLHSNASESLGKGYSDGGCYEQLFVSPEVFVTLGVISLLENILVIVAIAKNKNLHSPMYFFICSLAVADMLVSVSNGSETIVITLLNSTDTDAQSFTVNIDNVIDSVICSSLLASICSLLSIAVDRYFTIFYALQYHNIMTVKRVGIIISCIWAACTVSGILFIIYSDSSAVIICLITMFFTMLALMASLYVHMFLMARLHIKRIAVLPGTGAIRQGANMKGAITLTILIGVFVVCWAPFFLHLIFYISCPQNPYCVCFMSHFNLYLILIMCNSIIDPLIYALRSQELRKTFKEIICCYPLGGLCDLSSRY

inhibition at 10 µM [1] [%]	times higher in binding affinity to hMC4R than hMC1R ([1]; hMC4R vs hMC1R)	times higher in binding affinity to hMC4R than hMC3R ([1]; hMC4R vs hMC3R)	times higher in binding affinity to hMC4R than hMC5R ([1]; hMC4R vs hMC5R)	Emax at 10 µM [2] [%]	selectivity for hMC4R (in words) ([2]; comparing the EC50 of a compound for each receptor)	inhibition at 10 µM [3] [%]	hMC1R binding affinity (in words) [3]	inhibition at 10 µM [4] [%]	inhibition at 10 µM [5] [%]	Emax at 10 µM [6] [%]	Emax at 10 µM [7] [%]	Emax at 10 µM [8] [%]	PWR peak location under p-polarization ([9]; p-polarization, hMC4R sole 26.44)	PWR shift under s-polarization (in words) ([9]; s-polarization)	SMILES	PWR left shift under p-polarization relative to hMC4R sole ([9]; p-polarization, left shifted) [degrees]	PWR absorbance location under s-polarization ([9]; s-polarization, sole MC4R 33.29)
100	about 68 times	over 1000 times	over 1000 times	87	selective agonist of hMC4R	100	lower binding affinities than the others	10	75	90	63	76	26.95	no significant change	CC(=O)N[C@@H](CCCNC(=N)N)C(=O)N[C@H]1CC(=O)NCCCC[C@@H](C(N)=O)NC(=O)C[C@H](Cc2c[nH]c3ccccc23)NC(=O)C[C@H](CCCNC(=N)N)NC(=O)[C@@H](Cc2ccc(Cl)cc2)NC(=O)[C@@H]2CCCCN2C1=O [compound 9, Ac-Arg-cyclo[Asp-Pip-D-Phe(4-Cl)-βArg-BTrp-Lys]-NH2]		
100				57		100		70	0	67	24	21			CC(=O)N[C@@H](CCCNC(=N)N)C(=O)N[C@H]1CC(=O)NCCCC[C@@H](C(N)=O)NC(=O)C[C@H](Cc2c[nH]c3ccccc23)NC(=O)[C@H](CCCNC(=N)N)NC(=O)[C@@H](Cc2ccc(Cl)cc2)NC(=O)[C@@H]2CCCCN2C1=O [compound 7, Ac-Arg-cyclo[Asp-Pip-D-Phe(4-Cl)-Arg-BTrp-Lys]-NH2]		
100				66		100		100	0	89	46	38			CC(=O)N[C@@H](CCCNC(=N)N)C(=O)N[C@H]1CC(=O)NCCCC[C@@H](C(N)=O)NC(=O)[C@H](Cc2c[nH]c3ccccc23)NC(=O)C[C@H](CCCNC(=N)N)NC(=O)[C@@H](Cc2ccc(Cl)cc2)NC(=O)[C@@H]2CCCCN2C1=O [compound 8, Ac-Arg-cyclo[Asp-Pip-D-Phe(4-Cl)-βArg-Trp-Lys]-NH2]		
															CC(=O)N[C@@H](CCCNC(=N)N)C(=O)N[C@H]1CSSC[C@@H](C(N)=O)NC(=O)[C@H](Cc2c[nH]c3ccccc23)NC(=O)[C@H](CCCNC(=N)N)NC(=O)[C@@H](Cc2ccccc2)NC(=O)[C@H](Cc2c[nH]cn2)NC(=O)[C@@H](C)NC1=O [RM493, reference compound]	0.25	32.97
9				46		100		100	100	90	76	72			CC(=O)N[C@@H](CCCNC(=N)N)C(=O)N[C@H]1CC(=O)NCCCC[C@@H](C(N)=O)NC(=O)C[C@H](Cc2c[nH]c3ccccc23)NC(=O)[C@H](CCCNC(=N)N)NC(=O)[C@@H](Cc2ccc(F)cc2)NC(=O)[C@@H]2CCCCN2C1=O [compound 4, Ac-Arg-cyclo[Asp-Pip-D-Phe(4-F)-Arg-BTrp-Lys]-NH2]		
59				120		0	lower binding affinities than the others	39	90	61	49	51			CC(=O)N[C@@H](CCCNC(=N)N)C(=O)N[C@H]1CC(=O)NCCCC[C@@H](C(N)=O)NC(=O)C[C@H](Cc2c[nH]c3ccccc23)NC(=O)C[C@H](CCCNC(=N)N)NC(=O)[C@@H](Cc2ccc(F)cc2)NC(=O)[C@@H]2CCCCN2C1=O [compound 6, Ac-Arg-cyclo[Asp-Pip-D-Phe(4-F)-βArg-BTrp-Lys]-NH2]		
100				67		100		24	0	120	89	90			CC(=O)N[C@@H](CCCNC(=N)N)C(=O)N[C@H]1CC(=O)NCCCC[C@@H](C(N)=O)NC(=O)[C@H](Cc2c[nH]c3ccccc23)NC(=O)C[C@H](CCCNC(=N)N)NC(=O)[C@@H](Cc2ccccc2)NC(=O)[C@@H]2CCCCN2C1=O [compound 2, Ac-Arg-cyclo[Asp-Pip-D-Phe-βArg-Trp-Lys]-NH2]		
100				84		30	lower binding affinities than the others	100	46	82	87	82			CC(=O)N[C@@H](CCCNC(=N)N)C(=O)N[C@H]1CC(=O)NCCCC[C@@H](C(N)=O)NC(=O)C[C@H](Cc2c[nH]c3ccccc23)NC(=O)C[C@H](CCCNC(=N)N)NC(=O)[C@@H](Cc2ccccc2)NC(=O)[C@@H]2CCCCN2C1=O [compound 3, Ac-Arg-cyclo[Asp-Pip-D-Phe-βArg-BTrp-Lys]-NH2]		
